Experimental data from ChEMBL document CHEMBL3885881, “DrugMatrix”.

Species on record: Rattus norvegicus
Assay type: toxicity, organism-based, Sprague-Dawley
Conditions: in vivo, 24 h, time 1 day; for ABSOLUTE EOSINOPHIL / ABSOLUTE LYMPHOCYTE / ABSOLUTE MONOCYTE / ABSOLUTE SEGMENTED NEUTROPHIL / BASOPHIL / EOSINOPHIL / ERYTHROCYTE COUNT / HEMATOCRIT / HEMOGLOBIN / LEUKOCYTE COUNT / LYMPHOCYTE / MEAN CORPUSCULAR HEMOGLOBIN / MEAN CORPUSCULAR HEMOGLOBIN CONCENTRATION / MEAN CORPUSCULAR VOLUME / MONOCYTE / NEUTROPHIL / NUCLEATED RED BLOOD CELLS / PLATELET COUNT: tissue Blood; for ALANINE AMINOTRANSFERASE / ALBUMIN / ALKALINE PHOSPHATASE / ASPARTATE AMINOTRANSFERASE / BLOOD UREA NITROGEN / CARBON DIOXIDE / CHLORIDE / CHOLESTEROL / CREATININE / GLUCOSE / LACTATE DEHYDROGENASE / LIPASE / PHOSPHORUS / POTASSIUM / SODIUM / TOTAL BILIRUBIN / TOTAL PROTEIN / URIC ACID: tissue Plasma
[1] = po, 0 mg/kg, vehicle control, route oral GAVAGE, dose level Control, vehicle .5 % CMC
[2] = po, 430 mg/kg, route oral GAVAGE, dose level High, vehicle .5 % CMC
[3] = sc, 0 mg/kg, route mini-PUMP - SUBCUTANEOUS, dose level Control, vehicle 100 % SALINE
[4] = sc, […], route mini-PUMP - SUBCUTANEOUS, dose 0.77 mg/Kg, dose level High, vehicle 100 % SALINE

Description: DrugMatrix - Regimen: Single

ClC(Cl)Br [BROMODICHLOROMETHANE]
ABSOLUTE EOSINOPHIL [1]: 150 CELLS/uL
ABSOLUTE LYMPHOCYTE [1]: 13279.83 CELLS/uL
ABSOLUTE MONOCYTE [1]: 654.5 CELLS/uL
ABSOLUTE SEGMENTED NEUTROPHIL [1]: 1565.67 CELLS/uL
BASOPHIL [1]: 0%
EOSINOPHIL [1]: 1%
ERYTHROCYTE COUNT [1]: 5.36 x10E6/uL
HEMATOCRIT [1]: 33.37%
HEMOGLOBIN [1]: 12.52 G/DL
LEUKOCYTE COUNT [1]: 15.65 x10E3/uL
LYMPHOCYTE [1]: 84.83%
MEAN CORPUSCULAR HEMOGLOBIN [1]: 23.4 pg
MEAN CORPUSCULAR HEMOGLOBIN CONCENTRATION [1]: 37.52 G/DL
MEAN CORPUSCULAR VOLUME [1]: 62.32 fL
MONOCYTE [1]: 4.17%
NEUTROPHIL [1]: 10%
NUCLEATED RED BLOOD CELLS [1]: 0 /100WBC
PLATELET COUNT [1]: 1020 x10E3/uL
ALANINE AMINOTRANSFERASE [1]: 49 u/L
ALBUMIN [1]: 4.47 G/DL
ALKALINE PHOSPHATASE [1]: 361.17 u/L
ASPARTATE AMINOTRANSFERASE [1]: 78.67 u/L
BLOOD UREA NITROGEN [1]: 13.17 mg/dL
CARBON DIOXIDE [1]: 29.67 mmol/L
CHLORIDE [1]: 100.83 MEQ/L
CHOLESTEROL [1]: 82.17 mg/dL
CREATININE [1]: 0.15 mg/dL
GLUCOSE [1]: 150.83 mg/dL
LACTATE DEHYDROGENASE [1]: 239.17 u/L
LIPASE [1]: 7.83 u/L
PHOSPHORUS [1]: 13.82 mg/dL
POTASSIUM [1]: 6.62 MEQ/L
SODIUM [1]: 144.25 MEQ/L
TOTAL BILIRUBIN [1]: 0.15 mg/dL
TOTAL PROTEIN [1]: 6.2 G/DL
URIC ACID [1]: 1.57 mg/dL
ABSOLUTE EOSINOPHIL [2]: 41.33 CELLS/uL
ABSOLUTE LYMPHOCYTE [2]: 10502.67 CELLS/uL
ABSOLUTE MONOCYTE [2]: 677 CELLS/uL
ABSOLUTE SEGMENTED NEUTROPHIL [2]: 1645.67 CELLS/uL
BASOPHIL [2]: 0%
EOSINOPHIL [2]: 0.33%
ERYTHROCYTE COUNT [2]: 6.1 x10E6/uL
HEMATOCRIT [2]: 36.03%
HEMOGLOBIN [2]: 13.4 G/DL
LEUKOCYTE COUNT [2]: 12.87 x10E3/uL
LYMPHOCYTE [2]: 81.67%
MEAN CORPUSCULAR HEMOGLOBIN [2]: 21.97 pg
MEAN CORPUSCULAR HEMOGLOBIN CONCENTRATION [2]: 37.2 G/DL
MEAN CORPUSCULAR VOLUME [2]: 59.07 fL
MONOCYTE [2]: 5.33%
NEUTROPHIL [2]: 12.67%
NUCLEATED RED BLOOD CELLS [2]: 0 /100WBC
PLATELET COUNT [2]: 1251 x10E3/uL
ALANINE AMINOTRANSFERASE [2]: 62 u/L
ALBUMIN [2]: 4.77 G/DL
ALKALINE PHOSPHATASE [2]: 394.67 u/L
ASPARTATE AMINOTRANSFERASE [2]: 108 u/L
BLOOD UREA NITROGEN [2]: 16.33 mg/dL
CARBON DIOXIDE [2]: 25 mmol/L
CHLORIDE [2]: 103 MEQ/L
CHOLESTEROL [2]: 68 mg/dL
CREATININE [2]: 0.18 mg/dL
GLUCOSE [2]: 128.67 mg/dL
LACTATE DEHYDROGENASE [2]: 323 u/L
LIPASE [2]: 10 u/L
PHOSPHORUS [2]: 11.43 mg/dL
POTASSIUM [2]: 5.73 MEQ/L
SODIUM [2]: 144.9 MEQ/L
TOTAL BILIRUBIN [2]: 0.17 mg/dL
TOTAL PROTEIN [2]: 6.5 G/DL
URIC ACID [2]: 1.7 mg/dL

CNCC(O)c1ccc(O)c(O)c1 (centres undefined) [RACEPINEPHRINE]
ABSOLUTE EOSINOPHIL [3]: 26.17 CELLS/uL
ABSOLUTE LYMPHOCYTE [3]: 10985.83 CELLS/uL
ABSOLUTE MONOCYTE [3]: 234.5 CELLS/uL
ABSOLUTE SEGMENTED NEUTROPHIL [3]: 1753.5 CELLS/uL
BASOPHIL [3]: 0%
EOSINOPHIL [3]: 0.17%
ERYTHROCYTE COUNT [3]: 5.64 x10E6/uL
HEMOGLOBIN [3]: 12.68 G/DL
LEUKOCYTE COUNT [3]: 13 x10E3/uL
LYMPHOCYTE [3]: 84.5%
MEAN CORPUSCULAR HEMOGLOBIN [3]: 22.5 pg
MEAN CORPUSCULAR HEMOGLOBIN CONCENTRATION [3]: 36.78 G/DL
MEAN CORPUSCULAR VOLUME [3]: 61.18 fL
NEUTROPHIL [3]: 13.5%
NUCLEATED RED BLOOD CELLS [3]: 0.17 /100WBC
PLATELET COUNT [3]: 679.17 x10E3/uL
ALANINE AMINOTRANSFERASE [3]: 42.67 u/L
ALBUMIN [3]: 3.77 G/DL
ALKALINE PHOSPHATASE [3]: 291.17 u/L
ASPARTATE AMINOTRANSFERASE [3]: 74.5 u/L
BLOOD UREA NITROGEN [3]: 15.33 mg/dL
CARBON DIOXIDE [3]: 30 mmol/L
CHLORIDE [3]: 100.83 MEQ/L
CHOLESTEROL [3]: 65.33 mg/dL
CREATININE [3]: 0.15 mg/dL
LACTATE DEHYDROGENASE [3]: 162.67 u/L
LIPASE [3]: 8.5 u/L
PHOSPHORUS [3]: 12.2 mg/dL
POTASSIUM [3]: 5.73 MEQ/L
SODIUM [3]: 144.7 MEQ/L
TOTAL BILIRUBIN [3]: 0.15 mg/dL
TOTAL PROTEIN [3]: 5.87 G/DL
URIC ACID [3]: 1.93 mg/dL
ABSOLUTE EOSINOPHIL [4]: 58.33 CELLS/uL
ABSOLUTE LYMPHOCYTE [4]: 10774 CELLS/uL
ABSOLUTE MONOCYTE [4]: 283.33 CELLS/uL
ABSOLUTE SEGMENTED NEUTROPHIL [4]: 3051 CELLS/uL
BASOPHIL [4]: 0%
ERYTHROCYTE COUNT [4]: 5.86 x10E6/uL
HEMOGLOBIN [4]: 12.93 G/DL
LEUKOCYTE COUNT [4]: 14.17 x10E3/uL
LYMPHOCYTE [4]: 76.33%
MEAN CORPUSCULAR HEMOGLOBIN [4]: 22.1 pg
MEAN CORPUSCULAR HEMOGLOBIN CONCENTRATION [4]: 36.47 G/DL
MEAN CORPUSCULAR VOLUME [4]: 60.53 fL
NEUTROPHIL [4]: 21.33%
NUCLEATED RED BLOOD CELLS [4]: 0.67 /100WBC
PLATELET COUNT [4]: 983 x10E3/uL
ALBUMIN [4]: 4.03 G/DL
ALKALINE PHOSPHATASE [4]: 374 u/L
BLOOD UREA NITROGEN [4]: 11.67 mg/dL
CHLORIDE [4]: 100.33 MEQ/L
CHOLESTEROL [4]: 88.67 mg/dL
CREATININE [4]: 0.15 mg/dL
GLUCOSE [4]: 283.33 mg/dL
LACTATE DEHYDROGENASE [4]: 103.67 u/L
LIPASE [4]: 9 u/L
PHOSPHORUS [4]: 15.53 mg/dL
POTASSIUM [4]: 5.99 MEQ/L
SODIUM [4]: 145.87 MEQ/L
TOTAL BILIRUBIN [4]: 0.13 mg/dL
URIC ACID [4]: 3.3 mg/dL
